Experimental data as given in patent US5869658A, “Photochromic indeno-fused naptho[2,1-b]pyrans” (PPG Industries, Inc., priority 1997, dated 1999).

Key:
[1] = Lambda max of photochromic test squares by UV-Visible spectrophotometer; type: physicochemical; set-up: unit not given here; details: Varian Cary 3; for (λ) max (VIS): activated (colored) form in polymer test square, visible spectrum wavelength of maximum absorption; for (λ) max (UV): photochromic compound in polymer test square, ultraviolet wavelength closest to the visible spectrum
Method: (§1) Testing was done with the photochromic compounds described in Examples 1-5 and 7-9 in the following manner. A quantity of photochromic compound calculated to yield a 1.5×10^-3 molal solution was added to a flask containing 50 grams of a monomer blend of 4 parts ethoxylated bisphenol A dimethacrylate (BPA 2EO DMA), 1 part poly(ethylene glycol) 600 dimethacrylate, and 0.033 weight percent 2,2'-azobis(2-methyl propionitrile) (AIBN). The photochromic compound was dissolved into the monomer blend by stirring and gentle heating. After a clear solution was obtained, it was poured into a flat sheet mold having the interior dimensions of 2.2 mm×6 inches (15.24 cm)×6 inches (15.24 cm). The mold was sealed and placed in a horizontal air flow, programmable oven programmed to increase the temperature from 40° C. to 95° C. over a 5 hour interval, hold the temperature at 95° C. for 3 hours and then lower it to 60° C. for at least 2 hours. After the mold was opened, the polymer sheet was cut using a diamond blade saw into 2 inch (5.1 centimeters) test squares.
(§2) The Δ OD/Min, which represents the sensitivity of the photochromic compound's response to UV light, was measured over the first five (5) seconds of UV exposure, then expressed on a per minute basis. The saturation optical density (Δ OD@ Sat) was taken under identical conditions as the Δ OD/Min, except UV exposure was continued for 20 minutes. The lambda max (Vis) is the wavelength in the visible spectrum at which the maximum absorption of the activated (colored) form of the photochromic compound in a test square occurs. The lambda max (Vis) wavelength was determined by testing the photochromic test square polymerizates of Part A in a Varian Cary 3 UV-Visible spectrophotometer. The lambda (λ) max (UV) is the wavelength in the ultraviolet range closest to the visible spectrum at which the absorption of the photochromic compound occurs. This absorption was also determined with the same spectrophotometer. The bleach rate (T 1/2) is the time interval in seconds for the absorbance of the activated form of the photochromic compound in the test squares to reach one half the highest absorbance at room temperature (75° F., 23.90° C.) after removal of the source of activating light.

[2] = Photochromic response of test squares on an optical bench (ΔOD/Min, ΔOD at saturation, bleach rate); type: physicochemical; details: for ΔOD @ saturation: UV exposure continued for 20 minutes; for ΔOD @ saturation / ΔOD/MIN sensitivity: 75° F., 1.5×10^-3 molal in polymer; for ΔOD/MIN sensitivity: first five seconds of UV exposure, expressed per minute; for Bleach T 1/2: time to one half the highest absorbance at room temperature (75° F.) after removal of activating light
Method: as §1
The photochromic test squares prepared in Part A were tested for photochromic response on an optical bench. Prior to testing on the optical bench, the photochromic test squares were exposed to 365 nanometer ultraviolet light for about 15 minutes to activate the photochromic compounds and then placed in a 76° C. oven for about 15 minutes to bleach or inactivate the photochromic compounds. The test squares were then cooled to room temperature, exposed to fluorescent room lighting for at least 2 hours and then kept covered for at least 2 hours prior to testing on an optical bench maintained at 75° F. (23.90° C.). The bench was fitted with a 150 watt Xenon arc lamp, a remote controlled shutter, a copper sulfate bath acting as a heat sink for the arc lamp, a Schott WG-320 nm cut-off filter which removes short wavelength radiation; neutral density filter(s) and a sample holder in which the square to be tested was inserted. A collimated beam of light from a tungsten lamp was passed through the square at a small angle (approximately 30°) normal to the square. After passing through the square, the light from the tungsten lamp was directed to a detector through Spectral Energy Corp. GM-200 monochromator set at the previously determined visible lambda max of the photochromic compound being measured. The output signals from the detector were processed by a radiometer.
Change in optical density (ΔOD) was determined by inserting a test square in the bleached state into the sample holder, adjusting the transmittance scale to 100% opening the shutter from the Xenon lamp to provide ultraviolet radiation to change the test square from the bleached state to an activated (i.e., darkened) state, measuring the transmittance in the activated state, and calculating the change in optical density according to the formula: ΔOD=log(100/%Ta), where %Ta is the percent transmittance in the activated state and the logarithm is to the base 10.
as §2, with “The bleach rate (T 1/2) is the time interval in seconds for the absorbance of the activated form of the photochromic compound in the test squares to reach one half the highest absorbance at room temperature (75° F., 23.90° C.) after removal of the source of activating light.” left out

Row | SMILES | (λ) max (VIS) [1] | (λ) max (UV) [1] | ΔOD @ saturation [2] | ΔOD/MIN sensitivity [2] | Bleach T 1/2 [2] [s]
1 | COc1ccc2c3c(c4c(c2c1)C=CC(c1ccccc1)(c1ccccc1)O4)Cc1ccccc1-3 [Example 1, 6-methoxy-2,2-diphenyl-2,13-dihydro-indeno[1'2':4,3]naphtho[2,1-b]pyran] | 437 | 366 | 0.38 | 0.52 ΔOD/MIN | 42
2 | COc1cc2c3c(c4c(c2cc1OC)-c1ccccc1C4)OC(c1ccccc1)(c1ccccc1)C=C3 [Example 2, 6,7-dimethoxy-2,2-diphenyl-2,13-dihydro-indeno[1'2':4,3]naphtho[2,1-b]pyran] | 443 | 387 | 0.44 | 0.48 ΔOD/MIN | 51
3 | COc1ccc(C2(c3ccccc3F)C=Cc3c(c4c(c5cc(OC)c(OC)cc35)-c3ccccc3C4)O2)cc1 (stereo not shown) [Example 3, 6,7-dimethoxy-2-(2-fluorophenyl)-2-(4-methoxyphenyl)-2,13-dihydro-indeno[1',2':4,3]naphtho[2,1-b]pyran] | 464 | 385 | 1.22 | 0.48 ΔOD/MIN | 227
4 | COc1cc2c3c(c4c(c2cc1OC)-c1ccccc1C4C)OC(c1ccccc1)(c1ccccc1)C=C3 (stereo not shown) [Example 4, 6,7-dimethoxy-2,2-diphenyl-13-methyl-2,13-dihydro-indeno[1',2':4,3]naphtho[2,1-b]pyran] | 442 | 356 | 0.38 | 0.43 ΔOD/MIN | 62
5 | COc1cc2c3c(c4c(c2cc1OC)-c1ccccc1C4(C)C)OC(c1ccccc1)(c1ccccc1)C=C3 [Example 5, 6,7-dimethoxy-2,2-diphenyl-13,13-dimethyl-2,13-dihydro-indeno[1',2':4,3]naphtho[2,1-b]pyran] | 446 | 358 | 0.37 | 0.39 ΔOD/MIN | 58
6 | CCCCC1(O)c2ccccc2-c2c1c1c(c3cc(OC)c(OC)cc23)C=CC(c2ccccc2)(c2ccccc2)O1 (stereo not shown) [Example 7, 6,7-dimethoxy-2,2-diphenyl-13-hydroxy-13-butyl-2,13-dihydro-indeno[1',2':4,3]naphtho[2,1-b]pyran] | 445 | 356 | 0.23 | 0.41 ΔOD/MIN | 38
7 | COc1cc2c3c(c4c(c2cc1OC)-c1ccccc1C4(C)O)OC(c1ccccc1)(c1ccccc1)C=C3 (stereo not shown) [Example 8, 6,7-dimethoxy-2,2-diphenyl-13-hydroxy-13-methyl-2,13-dihydro-indeno[1',2':4,3]naphtho[2,1-b]pyran] | 459 | 361 | 0.25 | 0.41 ΔOD/MIN | 35
8 | COc1cc2c3c(c4c(c2cc1OC)-c1ccccc1C4O)OC(c1ccccc1)(c1ccccc1)C=C3 (stereo not drawn) [Example 9, 6,7-dimethoxy-2,2-diphenyl-13-hydroxy-2,13-dihydro-indeno[1',2':4,3]naphtho[2,l-b]pyran] | 469 | 359 | 0.17 | 0.28 ΔOD/MIN | 31
